Reference: patent publication US20060100140A1, “Combination of a) n-{5-[4-(4-methyl-piperazino-methyl)-benzoylamido]2-methylphenyl}-4- (3-pyridyl)-2-pyrimidine-amine and b) a histone deacetylase inhibitor for the treatment of leukemia” (priority 2002, published 2006)

Key:
Format in all cases: cell-based, human
[1] = test system: LAMA 84 cells; assay: Apoptosis by cytospin slides
Method: Experimental Format: Logarithmically growing cells are placed in sterile plastic T-flasks (Corning, Corning, N.Y.) to which are added the designated drugs and the flasks replaced in the incubator for intervals. At the end of the incubation period, cells are transferred to sterile centrifuge tubes, pelleted by centrifugation at 400×g for 10 min at room temperature, and prepared for analysis as described below.
(§1) Assessment of Apoptosis: After drug exposures, cytocentrifuge preparations are stained with Wright-Giemsa and viewed by light microscopy to evaluate the extent of apoptosis (i.e., cell shrinkage, nuclear condensation, formation of apoptotic bodies, etc.) as described previously (Yu et al., Nat. Rev. Cancer 1:294-202). For these studies, the percentage of apoptotic cells is determined by evaluating ≧500 cells/condition in triplicate. To confirm the results of morphological analysis, Annexin V/PI staining is used. Annexin V/PI (BD PharMingen, San Diego, Calif.) analysis of cell death is carried out as per the manufacturer's instructions. In studies involving TNF and TNF soluble receptor, both compound are combined and maintained at room temperature 20 min prior to use. For these experiments 1-2×10^5 cells per condition are harvested. Analysis is carried out using a Becton-Dickinson FACScan cytofluorometer (Mansfield, Mass.). To further confirm the morphology results, TUNEL staining is used. For TUNEL staining, cytocentrifuge preparations are obtained and fixed with 4% formaldehyde. The slides are treated with acetic acid/ethanol (1:2), stained with terminal transferase reaction mixture containing 1× terminal transferase reaction buffer (0.25 units/μl terminal transferase, 2.5 mM CoCl2, and 2 pmol fluorescein-12-dUTM; Boehringer Mannheim, Indianapolis, Ind.), and visualized using fluorescence microscopy.

[2] = test system: LAMA 84 cells; assay: Annexin V/PI flow cytometry of cell death; conditions: 200 nM Compound I ± 1.0 μM SAHA for 24 hr
Method: as §1, with “For” for “Assessment of Apoptosis: After drug exposures, cytocentrifuge preparations are stained with Wright-Giemsa and viewed by light microscopy to evaluate the extent of apoptosis (i.e., cell shrinkage, nuclear condensation, formation of apoptotic bodies, etc.) as described previously (Yu et al., Nat. Rev. Cancer 1:294-202). For”

[3] = test system: Compound I-resistant K562 cells (K562R); assay: Apoptosis by Wright Giemsa-stained cytospin slides in resistant cells; conditions: Table 7, 24 hr, Compound I (1.0 or 1.25 μM), SAHA (1.0 or 2.0)
Method: as §1, with “For TUNEL staining, cytocentrifuge preparations are obtained and fixed with 4% formaldehyde.” left out

SMILES	Compound I + SB % of apoptotic cells ([1]; Table 6, LAMA 84, 24 hr, sodium butyrate (SB; 1 or 2 mM), Compound I concentration not given) [%]	cell death ([1]; sensitive LAMA 84, Compound I (1.0 or 1.25 μM) for 48 hr, data not shown) [%]	% Annexin V/PI [2] [%]	Compound I + SAHA % of apoptotic cells [3] [%]
Cc1ccc(NC(=O)c2ccc(CN3CCN(C)CC3)cc2)cc1Nc1nccc(-c2cccnc2)n1 [Compound I, N-{5-[4-(4-methyl-piperazino-methyl)-benzoylamido]-2-methylphenyl}-4-(3-pyridyl)-2-pyrimidine-amine]	9.3 ± 3.8	~100	–	–
O=C(CCCCCCC(=O)Nc1ccccc1)NO [SAHA, suberoylanilide hydroxamic acid]	–	–	15.2 ± 2.4	6.8 ± 3.5
